Results reported in paper PMC12830207, “Targeting the protein–protein interaction between the CDC37 cochaperone and client kinases by an allosteric RAF dimer breaker” (The Journal of Biological Chemistry, 2025).
Blank lines part the entries; values can stand above or below the molecule they belong to.

Experiments:
[1] = tested on: MAPK proteins (BRAF, CRAF, MEK, pMEK, ERK, pERK); test: Immunoblot of MAPK proteins in HCT116 cells; type: cell-based
Experimental: (§1) Western blot band densities were quantified with ImageJ software (National Institutes of Health) and normalized to the indicated loading control. Statistical significance was determined through one-/two-way ANOVA, where indicated, followed by Tukey's honest significant difference post hoc test with corresponding p values (∗p < 0.05, ∗∗p < 0.002, ∗∗∗p < 0.0002, and ∗∗∗∗p < 0.0001). All graph bars represent the mean ± SD with individual data points per biological replicate with corresponding p values.

HCT116 cells = test: WST-1 cell viability assay, HCT116; type: cell-based; settings: HCT116, no braftide, 24 h, WST-1; read-out: EC50 of 17-AAG alone, HCT116
Experimental: HCT116 and WM3629 cells were seeded onto polylysine-coated, clear-bottomed, 96-well plates at 15(10)^3 cells per well and allowed to incubate for 24 h. Cells were treated with braftide and 17-AAG mixtures at indicated concentrations for 24 h (37 °C). The WST-1 cell viability assay was carried out according to the manufacturer's protocols (Roche; 11644807001) for 4 h, and absorbance readings were taken at 450 nM in a CLARIOstar plate reader. For the dose–response curves of braftide and 17-AAG, the data were fit to the 4-parameter logistic equation (dose–response fitting equation) in GraphPad Prism (Dotmatics): y=A1+(A2−A1)÷(1+10^(LOGx0−x)p)
Error bars are indicative of the SEM of each point.

HSP90 [2] = settings: cited from earlier work
From the text: However, this approach often requires high dosages, making cells more susceptible to thermal damage and inducing HSR1 expression ([10]). […] ATP competitive inhibitors for RAF kinase encou ...

ERK = settings: cited from earlier work
From the text: The RAF kinase family, comprising ARAF, BRAF, and CRAF, is one of the well-studied clients of CDC37. RAF kinase is a core component of the mitogen-activated protein kinase (MAPK) (RAS–RAF–mitogen-activated protein kinase kinase [MEK]–extracellular signal–regulated kinase [ERK]) pathway, governing cell proliferation, survival, senescence, differentiation, and migration ([18]). […] While ATP-competitive inhibitors like vemurafenib, dabrafenib, and encorafenib ...

BRAF–CDC37 interaction = test: NanoBiT luminescence CDC37–RAF interaction reporter assay, BRAF^SmBiT–CDC37^LgBiT; type: cell-based, human (HEK293); settings: HEK293, 10 µM vemurafenib, 4 hrs, Fig. S8
From the text: NanoBiT cytomegalovirus MCS BiBiT vector, which contains a BRAF N terminal fused with LgBiT and CRAF N terminal fused with SmBiT, was purchased from Promega. CDC37 LgBiT and CRAF SmBiT was generated using the standard Gibson Assembly (NEB HiFi Assembly) using NanoBiT BiBiT as the vector and following primers: 5′ […] 3′, 5′ […] 3′, 5′ […] 3′, 5′ […] 3′, and CDC37 LgBiT and BRAF SmBiT was generated using the standard Gibson Assembly using NanoBiT BiBiT as the vector and following primers: 5′ […] 3′, 5′ […] 3′, 5′ […] 3′, 5′ […] 3′. Primers were designed to introduce H20A, N22A, I23A triple mutation within the CDC37 FLAG tag and for NanoBiT construct CDC37(HNI/A) LgBit and BRAF SmBiT. Primers were designed to introduce the desired substitutions. The forward primer sequence was 5′ gccgcc[…] 3′, and the reverse primer sequence was 5′ gggggc[…] 3′. Site-directed mutagenesis was carried out using the Q5 Site-Directed Mutagenesis Kit (NEB; E0554) following the manufacturer's protocol.
Twenty-four hours post-transfection, cells were trypsinized, pelleted, resuspended in OptiMEM + 4% fetal bovine serum, and reseeded onto a 96-well plate at 5(10)^4 cells per well and then incubated at 37 °C overnight. Cells were pretreated with 1 μM bortezomib for 5 h and then braftide for 4 h at 0 and 25 μM. After treatment, 10 μM furimazine substrate was added to each well, and luminescence readings were taken at 470 to 480 nm using a CLARIOstar plate reader. Statistical significance was determined through a paired t test where indicated, followed by Tukey's honest significant difference post hoc test with corresponding p values (∗p < 0.05, ∗∗p < 0.01, and ∗∗∗p < 0.001). All graph bars represent the mean ± SD with individual data points per biological replicate with corresponding p values.

HSP90–CDC37 complex = settings: cited from earlier work
From the text: Unlike conventional HSP90 inhibitors, braftide preserves HSP90 activity while disrupting CDC37–client interactions, minimizing cytotoxicity and enhancing therapeutic precision. Braftide's ability to destabilize RAF through CDC37 inhibition may offer an alternative to high-dose HSP90 inhibitors, mitigating their associated side effects. […] While most HSP90–CDC37 inhibitors focus on HSP90 ATP-competitive inhibition ([6]), emerging ...

CDC37 = test: Photo-crosslinking and streptavidin pull-down, CDC37; type: binding, human (HEK293); settings: 10 μM peptide, lysate of HEK293 with CDC37-FLAG/BRAF-V5, 4 h, 4 °C, UV 1 h, streptavidin
Experimental: (§2) Transfected HEK293 cells were treated with the indicated treatments and harvested in cold PBS. The cell pellets were lysed in modified RIPA buffer (50 mM Hepes [pH 7.4], 150 mM sodium chloride, 0.1% NP-40 [IGEPAL630], 1 mM EDTA, 5% glycerol, 1 mM PMSF, 20 mM β-glycerophosphate, 2.5 mM sodium pyrophosphate, and 1 protease inhibitor tablet) and incubated with rotation for 2 h, 4 °C. Cell lysates were then incubated with resin (FLAG-M2 magnetic, Sigma [M8823] or streptavidin, Pierce [88816]) for 2 h to bind the tagged BRAF–CRAF or BTN–braftide-crosslinked proteins. The samples were washed five times in a modified RIPA buffer and quenched in loading dye (BTN IP elution was supplemented with 20 mM biotin in loading dye) and heated at 95 °C, 5 min. Samples were analyzed via immunoblot.
(§3) HEK293 cells were cotransfected with CDC37 (FLAG-tagged) and BRAF (V5-tagged). Cells were harvested in cold PBS, and pellets were lysed in modified RIPA buffer with rotation for 2 h, 4 °C. Cell lysate (1 mg) was incubated with 0 or 10 μM BTN–braftide/JAK2, with rotation for 4 h, at 4 °C. Samples were then exposed to […] UV light for 1 h over ice. After UV treatment, samples were incubated with Pierce Streptavidin magnetic beads (catalog no.: 88816) for 17 h at 4 °C, to bind BTN–braftide. […] Samples were analyzed via immunoblot.

BRAF = test: Photo-crosslinking and streptavidin pull-down, BRAF; type: binding, human (HEK293); settings: 10 μM peptide, lysate of HEK293 with CDC37-FLAG/BRAF-V5, 4 h, 4 °C, UV 1 h, streptavidin
Experimental: as §2, §3

HSP90 [3] = test: Photo-crosslinking and streptavidin pull-down, HSP90; type: binding, human (HEK293); settings: 10 μM peptide, HEK293 lysate, 4 h, 4 °C, UV 1 h, streptavidin
Experimental: as §2, §3

MAPK proteins / pERK = test: Immunoblot of protein degradation and pERK with control peptide in HEK293; type: cell-based, human (HEK293); settings: HEK293 cotransfected with CDC37 and RAF (Fig. S2A)
Experimental: as §1

AKT1 = test: Photo-crosslinking and streptavidin pull-down, AKT1; type: binding, human (HEK293); settings: 10 μM peptide, HEK293 lysate, 4 h, 4 °C, UV 1 h, streptavidin
Experimental: as §2, §3

CRAF = test: Photo-crosslinking and streptavidin pull-down, endogenous CRAF; type: binding, human (HEK293); settings: 10 μM peptide, HEK293 lysate, 4 h, 4 °C, UV 1 h, streptavidin
Experimental: as §2, §3

[4] = target: HSP90 (endogenous, HEK293), P07900; test: co-immunoprecipitation (IP: FLAG), immunoblot band quantification; settings: chain shown with the change, representative blot

Molecule: C=CCNC1=C2C[C@@H](C)C[C@H](OC)[C@H](O)[C@@H](C)/C=C(\C)[C@H](OC(N)=O)[C@@H](OC)/C=C\C=C(/C)C(=O)NC(=CC1=O)C2=O [17-AAG, 17-N-allylamino-17-demethoxygeldanamycin, reference compound]
- CRAF degradation and MAPK signaling, combination ([1]; HCT116, 500 nM 17-AAG + 500 nM braftide, immunoblot, n = 3): significant degradation of CRAF kinase and downregulation of MAPK signaling
- inhibition by monotherapy at 500 nM ([1]; HCT116, 500 nM single agent, immunoblot): Neither 17-AAG nor braftide monotherapy exhibited obvious inhibition
- concentration at which CRAF kinase level is depleted, 17-AAG monotherapy ([1]; HCT116, 17-AAG alone, 16 h, immunoblot): 2 µM
- EC50 (HCT116 cells): > 5 µM
- cytotoxicity in clinical trials (HSP90 [2]): its clinical trials faced challenges because of high cytotoxicity

Molecule: CCCS(=O)(=O)Nc1ccc(F)c(C(=O)c2c[nH]c3ncc(-c4ccc(Cl)cc4)cc23)c1F [Vemurafenib, reference compound]
- paradoxical activation of downstream ERK (ERK): can lead to paradoxical activation of downstream ERK under certain conditions
- NanoBiT BRAF–CDC37 interaction, vemurafenib (BRAF–CDC37 interaction): disrupted the interaction between BRAF and CDC37 in the NanoBiT assay

Molecule: CC1=C[C@H](C)C[C@H](C)[C@H](Cc2cnco2)OC(=O)/C(C)=C\[C@H](C)C[C@H](C)[C@H](Cc2cnco2)OC1=O [conglobatin A]
- dissociation of HSP90–CDC37 complex (HSP90–CDC37 complex): allosterically dissociate the HSP90–CDC37 complex

Molecule: CC(C)(C)c1nc(-c2cccc(NS(=O)(=O)c3c(F)cccc3F)c2F)c(-c2ccnc(N)n2)s1 [dabrafenib]
- paradoxical activation of downstream ERK (ERK): can lead to paradoxical activation of downstream ERK under certain conditions

Molecule: COC(=O)N[C@@H](C)CNc1nccc(-c2cn(C(C)C)nc2-c2cc(Cl)cc(NS(C)(=O)=O)c2F)n1 [encorafenib]
- paradoxical activation of downstream ERK (ERK): can lead to paradoxical activation of downstream ERK under certain conditions

Molecule: C[C@@H]1O[C@@H](O[C@H]2[C@H](OC(=O)[C@]34CCC(C)(C)C[C@H]3C3=CC[C@@H]5[C@@]6(C)C[C@H](O)[C@H](O[C@@H]7O[C@H](CO)[C@@H](O)[C@H](O)[C@H]7O)C(CO)(CO)[C@@H]6CC[C@@]5(C)[C@]3(C)C[C@H]4O)OC[C@H](O)[C@@H]2O)[C@H](O)[C@H](O)[C@H]1O[C@@H]1OC[C@@H](O)[C@H](O[C@@H]2OC[C@](O)(CO)[C@H]2O)[C@H]1O [platycodin D]
- dissociation of HSP90–CDC37 complex (HSP90–CDC37 complex): allosterically dissociate the HSP90–CDC37 complex

Molecule: Biotin-GRKKRRQRRRPQ-miniPEG-SxQHDNIVKY [BTN–JAK2, biotinylated control peptide derived from the αC helix–β4 loop of the JAK2 kinase, same TAT-miniPEG fragment, reference compound]
- co-immunoprecipitation of CDC37 with biotinylated peptide (CDC37): did not coimmunoprecipitate BRAF, CDC37, or HSP90 under the same conditions
- co-immunoprecipitation of BRAF with biotinylated peptide (BRAF): did not coimmunoprecipitate BRAF, CDC37, or HSP90 under the same conditions
- co-immunoprecipitation of HSP90 with biotinylated peptide (HSP90 [3]): did not coimmunoprecipitate BRAF, CDC37, or HSP90 under the same conditions
- protein degradation and pERK levels with control peptide (MAPK proteins / pERK): did not induce protein degradation or reduce pERK levels

Molecule: Biotin-GRKKRRQRRRPQ-miniPEG-TRHVNILxFM [BTN–braftide]
- co-immunoprecipitation of CDC37 with biotinylated peptide (CDC37): coimmunoprecipitated CDC37, BRAF, and endogenous CRAF
- co-immunoprecipitation of AKT1 with biotinylated peptide (AKT1): Neither AKT1 nor HSP90 was pulled down in this assay
- co-immunoprecipitation of BRAF with biotinylated peptide (BRAF): coimmunoprecipitated CDC37, BRAF, and endogenous CRAF
- co-immunoprecipitation of HSP90 with biotinylated peptide (HSP90 [3]): Neither AKT1 nor HSP90 was pulled down in this assay
- co-immunoprecipitation of endogenous CRAF with biotinylated peptide (CRAF): coimmunoprecipitated CDC37, BRAF, and endogenous CRAF

Molecule: GRKKRRQRRRPQ-miniPEG-SLQHDNIVKY [TAT–JAK2, negative control peptide derived from the αC helix–β4 loop of the JAK2 kinase, reference compound]
- MAPK proteins with control peptide ([1]; HCT116, 4 h, Fig. S2A): MAPK proteins are unaffected by control peptide

Molecule: GRKKRRQRRRPQ-miniPEG-THHVNILLFM [R/H peptide]
- protein degradation of BRAF, CRAF, MEK, and ERK ([1]; HCT116, braftide^R2H, 4 h, immunoblot): failed to induce protein degradation of BRAF, CRAF, MEK, and ERK
- impact on MAPK signaling ([1]; HCT116, braftide^R2H, 4 h, pMEK and pERK immunoblot): had no impact on MAPK signaling in HCT116 cells

- ratio to parent ([4]; HEK293 cells coexpressing BRAF-V5): 1.01
- ratio to parent ([4]; HEK293 cells coexpressing CRAF-HA): 0.91
B1: CDC37-myc-FLAG, Q16543 H20A; N22A; I23A (protein)
chain: MVDYSVWDHIEVSDDEDETAPAADTASLFRWRHQARVERMEQFQKEKEELDRGCRECKRKVAECQRKLKELEVAEGGKAELERLQAEAQQLRKEERSWEQKLEEMRKKEKSMPWNVDTLSKDGFSKSMVNTKPEKTEEDSEEVREQKHKTFVEKYEKQIKHFGMLRRWDDSQKYLSDNVHLVCEETANYLVIWCIDLEVEEKCALMEQVAHQTIVMQFILELAKSLKVDPRACFRQFFTKIKTADRQYMEGFNDELEAFKERVRGRAKLRIEKAMKEYEEEERKKRLGPGGLDPVEVYESLPEELQKCFDVKDVQMLQDAISKMDPTDAKYHMQRCIDSGLWVPNSKASEAKEGEEAGPGDPLLEAVPKTGDEKDVSV
